Patent US6355799B1, “Substituted benzene compounds, process for their preparation, and herbicidal and defoliant compositions containing them” (ISK Americas Incorporated, priority 1997, dated 2002)

Experiments:
Assay type in all cases: in vivo
[1] = tested on: redroot pigweed (Amaranthus retroflexus, AMARE); experiment: Pre-emerge test, greenhouse herbicide activity screening; details: rating scale 0-100, 14 days after application
Procedure, shortened: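 Plants grown in 10 cm pots of sandy loam mix received acetone-dissolved compounds through a moving flat-fan nozzle. Doses ranged from 15 to 1000 g ai/ha. Pre-emerge pots were seeded one day earlier, post-emerge pots 8–21 days earlier. Fourteen days on, each pot was graded 0–100 for damage.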

[2] = tested on: barnyardgrass (Echinochloa crus-galli, ECHCG); experiment: as above; details: rating scale 0-100, 14 days after application
Procedure, shortened: (§1)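 Compounds in acetone were track-sprayed at 15–1000 g ai/ha: pre-emergence onto soil sown the previous day, then top-watered to incorporate and later bottom-watered; post-emergence onto 2–3 leaf plants with 0.25% v/v surfactant, bottom-watered only. Ratings on a 0–100 phytotoxicity scale were taken at day 14.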

[3] = tested on: green foxtail (Setaria viridis, SETVI); experiment: as above; details: rating scale 0-100, 14 days after application
Procedure, shortened: as §1

[4] = tested on: ivyleaf morningglory (Ipomoea hederacea, IPOHE); experiment: as above; details: rating scale 0-100, 14 days after application
Procedure, shortened: as §1

[5] = tested on: johnsongrass (Sorghum halepense, SORHA); experiment: as above; details: rating scale 0-100, 14 days after application
Procedure, shortened: as §1

[6] = tested on: lambsquarters (Chenopodium album, CHEAL); experiment: as above; details: rating scale 0-100, 14 days after application
Procedure, shortened: as §1

[7] = tested on: large crabgrass (Digitaria sanguinalis, DIGSA); experiment: as above; details: rating scale 0-100, 14 days after application
Procedure, shortened: as §1

[8] = tested on: sicklepod (Cassia obtusifolia, CASOB); experiment: as above; details: rating scale 0-100, 14 days after application
Procedure, shortened: as §1

[9] = tested on: velvetleaf (Abutilon theophrasti, ABUTH); experiment: as above; details: rating scale 0-100, 14 days after application
Procedure, shortened: as §1

[10] = tested on: field corn (Zea mays L., var. Dekalb 535, CORN); experiment: Pre-emerge test, crop safety; details: rating scale 0-100, 14 days after application
Procedure, shortened: (§2)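 Sandy loam pots; pre-emerge: sown 1 d pre-spray, surface-watered after, then bottom-watered. Post-emerge: sown 8–21 d before, 2–3 leaf stage, + 0.25% v/v NIS, bottom-watered. Acetone, 187 l/ha track spray, 15–1000 g ai/ha. 0–100 injury score, day 14.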

[11] = tested on: upland rice (Oryza sp., var. Tebonnet, RICE); experiment: Pre-emerge test, crop safety; details: rating scale 0-100, 14 days after application
Procedure, shortened: as §2

[12] = tested on: barnyardgrass (Echinochloa crus-galli, ECHCG); experiment: Post-emerge test, greenhouse herbicide activity screening; details: rating scale 0-100 (0 no damage, 100 complete death), 14 days after application
Procedure, shortened: as §1

[13] = tested on: common ragweed (Ambrosia artemisizfolia L., AMBEL); experiment: as above; details: rating scale 0-100 (0 no damage, 100 complete death), 14 days after application
Procedure, shortened: as §1

[14] = tested on: green foxtail (Setaria viridis, SETVI); experiment: as above; details: rating scale 0-100 (0 no damage, 100 complete death), 14 days after application
Procedure, shortened: as §1

[15] = tested on: ivyleaf morningglory (Ipomoea hederacea, IPOHE); experiment: as above; details: rating scale 0-100 (0 no damage, 100 complete death), 14 days after application
Procedure, shortened: as §1

[16] = tested on: johnsongrass (Sorghum halepense, SORHA); experiment: as above; details: rating scale 0-100 (0 no damage, 100 complete death), 14 days after application
Procedure, shortened: as §1

[17] = tested on: lambsquarters (Chenopodium album, CHEAL); experiment: as above; details: rating scale 0-100 (0 no damage, 100 complete death), 14 days after application
Procedure, shortened: as §1

[18] = tested on: large crabgrass (Digitaria sanguinalis, DIGSA); experiment: as above; details: rating scale 0-100 (0 no damage, 100 complete death), 14 days after application
Procedure, shortened: as §1

[19] = tested on: redroot pigweed (Amaranthus retroflexus, AMARE); experiment: as above; details: rating scale 0-100 (0 no damage, 100 complete death), 14 days after application
Procedure, shortened: as §1

[20] = tested on: sicklepod (Cassia obtusifolia, CASOB); experiment: as above; details: rating scale 0-100 (0 no damage, 100 complete death), 14 days after application
Procedure, shortened: as §1

[21] = tested on: velvetleaf (Abutilon theophrasti, ABUTH); experiment: as above; details: rating scale 0-100 (0 no damage, 100 complete death), 14 days after application
Procedure, shortened: as §1

[22] = tested on: field corn (Zea mays L., var. Dekalb 535, CORN); experiment: Post-emerge test, crop safety; details: rating scale 0-100 (0 no damage, 100 complete death), 14 days after application
Procedure, shortened: (§3)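 Rating: 0–100 visual injury, 14 DAA. Application: acetone, 187 l/ha, 15–1000 g ai/ha, flat-fan track sprayer with nozzle 40–45 cm above soil or canopy. Post-emerge runs used 0.25% v/v surfactant on 2–3 leaf plants.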

[23] = tested on: upland rice (Oryza sp., var. Tebonnet, RICE); experiment: Post-emerge test, crop safety; details: rating scale 0-100 (0 no damage, 100 complete death), 14 days after application
Procedure, shortened: as §3

With `CCOC(=O)C(Br)Cc1c(OC)c(Cl)cc(F)c1-n1c(=O)cc(C(F)(F)F)n(C)c1=O` (single isomer, unassigned) [14-33] the “Pre-emerge herbicidal activity, phytotoxicity rating AMARE” value ([1]; 63 g ai/ha) was 100, the “Pre-emerge herbicidal activity, phytotoxicity rating AMARE” value ([1]; 250 g ai/ha) was 100 and the “Pre-emerge herbicidal activity, phytotoxicity rating ECHCG” value ([2]; 63 g ai/ha) was 0. For the same compound, the “Pre-emerge herbicidal activity, phytotoxicity rating ECHCG” value ([2]; 250 g ai/ha) was 0, the “Pre-emerge herbicidal activity, phytotoxicity rating SETVI” value ([3]; 63 g ai/ha) was 0 and the “Pre-emerge herbicidal activity, phytotoxicity rating SETVI” value ([3]; 250 g ai/ha) was 50. The “Pre-emerge herbicidal activity, phytotoxicity rating IPOHE” value ([4]; 63 g ai/ha) was 0, the “Pre-emerge herbicidal activity, phytotoxicity rating IPOHE” value ([4]; 250 g ai/ha) was 0 and the “Pre-emerge herbicidal activity, phytotoxicity rating SORHA” value ([5]; 63 g ai/ha) was 0. The “Pre-emerge herbicidal activity, phytotoxicity rating SORHA” value ([5]; 250 g ai/ha) was 30, the “Pre-emerge herbicidal activity, phytotoxicity rating CHEAL” value ([6]; 63 g ai/ha) was 0 and the “Pre-emerge herbicidal activity, phytotoxicity rating CHEAL” value ([6]; 250 g ai/ha) was 90. The “Pre-emerge herbicidal activity, phytotoxicity rating DIGSA” value ([7]; 63 g ai/ha) was 0, the “Pre-emerge herbicidal activity, phytotoxicity rating DIGSA” value ([7]; 250 g ai/ha) was 99 and the “Pre-emerge herbicidal activity, phytotoxicity rating CASOB” value ([8]; 63 g ai/ha) was 0. For the same compound, the “Pre-emerge herbicidal activity, phytotoxicity rating CASOB” value ([8]; 250 g ai/ha) was 0, the “Pre-emerge herbicidal activity, phytotoxicity rating ABUTH” value ([9]; 63 g ai/ha) was 20 and the “Pre-emerge herbicidal activity, phytotoxicity rating ABUTH” value ([9]; 250 g ai/ha) was 90. The “Pre-emerge phytotoxicity rating, crop damage CORN” value ([10]; 63 g ai/ha) was 10, the “Pre-emerge phytotoxicity rating, crop damage CORN” value ([10]; 250 g ai/ha) was 20 and the “Pre-emerge phytotoxicity rating, crop damage RICE” value ([11]; 63 g ai/ha) was 0. For the same compound, the “Pre-emerge phytotoxicity rating, crop damage RICE” value ([11]; 250 g ai/ha) was 10, the “Post-emerge Herbicidal Activity, phytotoxicity rating ECHCG” value ([12]; Rate 63 g ai/ha) was 100 and the “Post-emerge Herbicidal Activity, phytotoxicity rating ECHCG” value ([12]; Rate 250 g ai/ha) was 100. The “Post-emerge Herbicidal Activity, phytotoxicity rating AMBEL” value ([13]; Rate 63 g ai/ha) was 0, the “Post-emerge Herbicidal Activity, phytotoxicity rating AMBEL” value ([13]; Rate 250 g ai/ha) was 100 and the “Post-emerge Herbicidal Activity, phytotoxicity rating SETVI” value ([14]; Rate 63 g ai/ha) was 40. The “Post-emerge Herbicidal Activity, phytotoxicity rating SETVI” value ([14]; Rate 250 g ai/ha) was 90, the “Post-emerge Herbicidal Activity, phytotoxicity rating IPOHE” value ([15]; Rate 63 g ai/ha) was 20 and the “Post-emerge Herbicidal Activity, phytotoxicity rating IPOHE” value ([15]; Rate 250 g ai/ha) was 20. The “Post-emerge Herbicidal Activity, phytotoxicity rating SORHA” value ([16]; Rate 63 g ai/ha) was 10, the “Post-emerge Herbicidal Activity, phytotoxicity rating SORHA” value ([16]; Rate 250 g ai/ha) was 95 and the “Post-emerge Herbicidal Activity, phytotoxicity rating CHEAL” value ([17]; Rate 63 g ai/ha) was 20. For the same compound, the “Post-emerge Herbicidal Activity, phytotoxicity rating CHEAL” value ([17]; Rate 250 g ai/ha) was 70, the “Post-emerge Herbicidal Activity, phytotoxicity rating DIGSA” value ([18]; Rate 63 g ai/ha) was 70 and the “Post-emerge Herbicidal Activity, phytotoxicity rating DIGSA” value ([18]; Rate 250 g ai/ha) was 100. For the same compound, the “Post-emerge Herbicidal Activity, phytotoxicity rating AMARE” value ([19]; Rate 63 g ai/ha) was 100, the “Post-emerge Herbicidal Activity, phytotoxicity rating AMARE” value ([19]; Rate 250 g ai/ha) was 100 and the “Post-emerge Herbicidal Activity, phytotoxicity rating CASOB” value ([20]; Rate 63 g ai/ha) was 0. For the same compound, the “Post-emerge Herbicidal Activity, phytotoxicity rating CASOB” value ([20]; Rate 250 g ai/ha) was 0, the “Post-emerge Herbicidal Activity, phytotoxicity rating ABUTH” value ([21]; Rate 63 g ai/ha) was 90 and the “Post-emerge Herbicidal Activity, phytotoxicity rating ABUTH” value ([21]; Rate 250 g ai/ha) was 100. The “Post-emerge phytotoxicity rating CORN (crop damage)” value ([22]; Rate 63 g ai/ha) was 10, the “Post-emerge phytotoxicity rating CORN (crop damage)” value ([22]; Rate 250 g ai/ha) was 95 and the “Post-emerge phytotoxicity rating RICE (crop damage)” value ([23]; Rate 63 g ai/ha) was 0. For the same compound, the “Post-emerge phytotoxicity rating RICE (crop damage)” value ([23]; Rate 250 g ai/ha) was 0.
